In patent US9708314B2, “Heterocyclic amide compound” (NISSAN CHEMICAL INDUSTRIES, LTD., priority 2013, dated 2017):

Tests used:
Format in all cases: in vivo
Zea mays = test: Test Example 4: effect on crop by application to foliage (diluvial soil, plastic box); conditions: for c (Zea mays) effect on crop grade: Application herbicide amount 320 g/ha, foliage application
Method in brief: (§1)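 Read-out is a 0–5 visual grade of herbicidal ratio (5: ≥90%, almost withered; 0: ≤5%) taken three weeks after treatment. Compound was applied as a diluted emulsion to stem and leaf parts of 14-day greenhouse-grown plants (25° C. to 30° C.) at rates expressed as g/ha.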

[1] = system: Beta vulgaris ssp. vulgaris; test: as above; conditions: for f (Beta vulgaris ssp. vulgaris) effect on crop grade: Application herbicide amount 320 g/ha, foliage application
Method in brief: as §1

Triticum aestivum = test: as above; conditions: for e (Triticum aestivum) effect on crop grade: Application herbicide amount 320 g/ha, foliage application
Method in brief: as §1

Glycine max = test: as above; conditions: for d (Glycine max) effect on crop grade: Application herbicide amount 320 g/ha, foliage application
Method in brief: as §1

Brassica campestris L. = test: as above; conditions: for g (Brassica campestris L.) effect on crop grade: Application herbicide amount 320 g/ha, foliage application
Method in brief: as §1

[2] = system: directly sowed Oryza sativa; test: Test Example 3: effect on crop by application to foliage (Wagner pot, water depth 0.1-0.5 cm); conditions: Nineteenth Table; application to foliage; application herbicide amount 320 g/ha
Method in brief: (§2)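 Foliar spray, 14-day-old plants, emulsion diluted to target g/ha; rated 3 wk post-application, 0–5 scale (0 ≤5%, 5 ≥90% herbicidal ratio). Greenhouse 25–30 °C, alluvial soil.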

Abutilon theophrasti = test: Test Example 4: herbicidal effect by application to foliage (diluvial soil, plastic box); conditions: for M (Abutilon theophrasti) herbicidal effect grade: Application herbicide amount 320 g/ha, foliage application
Text: (§3) 5 Herbicidal ratio of 90% or more (almost completely withered) 4 Herbicidal ratio of 70% or more and less than 90% 3 Herbicidal ratio of 40% or more and less than 70% 2 Herbicidal ratio of 20% or more and less than 40% 1 Herbicidal ratio of 5% or more and less than 20% 0 Herbicidal ratio of 5% or less (almost no effect) [Test Example 4] Herbicidal Effect Test by Application to Foliage Sterilized diluvial soil was placed in a plastic box having a length of 21 cm, a width of 13 cm, and a depth of 7 cm. Each of the seeds of Digitaria ciliaris, Setaria viridis, Echinochloa crus-galli var. crus-galli, Avena fatua, Alopecurus myosuroides, Lolium multiflorum Lam., Apera spica-venti., Abutilon theophrasti, Amaranthus retroflexus, Chenopodium album, Stellaria media, Galium spurium, Veronica persica, Zea mays, Glycine max, Oryza sativa, Triticum aestivum, Beta vulgaris ssp. vulgaris, and Brassica campestris L. was sowed in a spot-like manner and was covered with the soil of about 1.5 cm thick. Thereafter, the plants were grown in the greenhouse of 25° C. to 30° C. After the plants were grown for 14 days, the emulsion agent containing the compound of the present invention prepared in accordance with Formulation Example 2 was diluted with water so as to be a predetermined herbicide amount and the diluted compound was uniformly applied to a stem and leaf part with a small-size spray. Three weeks after the herbicide application, effects on each plant were investigated in accordance with the criteria of Test Example 1. A: Echinochloa oryzicola Vasing., B: Scirpus juncoides, C: Monochoria vaginalis, D: Leptochloa chinensis, E: Cyperus difformis, F: Digitaria ciliaris, G: Setaria viridis, H: Echinochloa crus-galli var. crus-galli, I: Avena fatua, J: Alopecurus myosuroides, K: Lolium multiflorum Lam., L: Apera spica-venti., M: Abutilon theophrasti, N: Amaranthus retroflexus, O: Chenopodium album, P: Stellaria media, Q: Galium spurium, R: Veronica persica, a: transplanted Oryza sativa, b: directly sowed Oryza sativa, c: Zea mays, d: Glycine max, e: Triticum aestivum, f: Beta vulgaris ssp. vulgaris, and g: Brassica campestris L. The application herbicide amount (g/ha) means an amount that a concentration is adjusted so that, when an application amount is converted into per hectare (1 ha), the herbicide is applied by the number of grams (g) of the described value.

Galium spurium = test: as above; conditions: for Q (Galium spurium) herbicidal effect grade: Application herbicide amount 320 g/ha, foliage application
Text: as §3

Apera spica-venti. = test: as above; conditions: for L (Apera spica-venti.) herbicidal effect grade: Application herbicide amount 320 g/ha, foliage application
Text: as §3

Alopecurus myosuroides = test: as above; conditions: for J (Alopecurus myosuroides) herbicidal effect grade: Application herbicide amount 320 g/ha, foliage application
Text: as §3

Setaria viridis = test: as above; conditions: for G (Setaria viridis) herbicidal effect grade: Application herbicide amount 320 g/ha, foliage application
Text: as §3

Digitaria ciliaris = test: as above; conditions: for F (Digitaria ciliaris) herbicidal effect grade: Application herbicide amount 320 g/ha, foliage application
Text: as §3

Amaranthus retroflexus = test: as above; conditions: for N (Amaranthus retroflexus) herbicidal effect grade: Application herbicide amount 320 g/ha, foliage application
Text: as §3

[3] = system: Echinochloa crus-galli var. crus-galli; test: as above; conditions: for H (Echinochloa crus-galli var. crus-galli) herbicidal effect grade: Application herbicide amount 320 g/ha, foliage application
Text: as §3

Veronica persica = test: as above; conditions: for R (Veronica persica) herbicidal effect grade: Application herbicide amount 320 g/ha, foliage application
Text: as §3

Chenopodium album = test: as above; conditions: for O (Chenopodium album) herbicidal effect grade: Application herbicide amount 320 g/ha, foliage application
Text: as §3

Lolium multiflorum Lam. = test: as above; conditions: for K (Lolium multiflorum Lam.) herbicidal effect grade: Application herbicide amount 320 g/ha, foliage application
Text: as §3

Avena fatua = test: as above; conditions: for I (Avena fatua) herbicidal effect grade: Application herbicide amount 320 g/ha, foliage application
Text: as §3

Stellaria media = test: as above; conditions: for P (Stellaria media) herbicidal effect grade: Application herbicide amount 320 g/ha, foliage application
Text: as §3

Leptochloa chinensis = test: Test Example 3: herbicidal effect by application to foliage (Wagner pot, water depth 0.1-0.5 cm); conditions: Nineteenth Table; application to foliage; application herbicide amount 320 g/ha
Method in brief: as §2

Cyperus difformis = test: as above; conditions: Nineteenth Table; application to foliage; application herbicide amount 320 g/ha
Method in brief: as §2

[4] = system: Echinochloa crus-galli var. crus-galli; test: as above; conditions: Nineteenth Table; application to foliage; application herbicide amount 320 g/ha
Method in brief: as §2

[5] = system: directly sowed Oryza sativa; test: Test Example 4: effect on crop by application to foliage (diluvial soil, plastic box); conditions: application to foliage, 320 g/ha
Method in brief: as §1

[6] = application to foliage, 320 g/ha

Structure (SMILES) | c (Zea mays) effect on crop grade (Zea mays) | f (Beta vulgaris ssp. vulgaris) effect on crop grade [1] | e (Triticum aestivum) effect on crop grade (Triticum aestivum) | d (Glycine max) effect on crop grade (Glycine max) | g (Brassica campestris L.) effect on crop grade (Brassica campestris L.) | b (effect on crop grade) [2] | M (Abutilon theophrasti) herbicidal effect grade (Abutilon theophrasti) | Q (Galium spurium) herbicidal effect grade (Galium spurium) | L (Apera spica-venti.) herbicidal effect grade (Apera spica-venti.) | J (Alopecurus myosuroides) herbicidal effect grade (Alopecurus myosuroides) | G (Setaria viridis) herbicidal effect grade (Setaria viridis) | F (Digitaria ciliaris) herbicidal effect grade (Digitaria ciliaris) | N (Amaranthus retroflexus) herbicidal effect grade (Amaranthus retroflexus) | H (Echinochloa crus-galli var. crus-galli) herbicidal effect grade [3] | R (Veronica persica) herbicidal effect grade (Veronica persica) | O (Chenopodium album) herbicidal effect grade (Chenopodium album) | K (Lolium multiflorum Lam.) herbicidal effect grade (Lolium multiflorum Lam.) | I (Avena fatua) herbicidal effect grade (Avena fatua) | D (herbicidal effect grade) (Leptochloa chinensis) | H (herbicidal effect grade) [4] | also measured
COC(=O)CSc1nnc2c(C(=O)Nc3nnc(C)o3)ccc(C(F)(F)F)n12 [1-127] | 0 (Herbicidal ratio of 5% or less (almost no effect)) | 2 (Herbicidal ratio of 20% or more and less than 40%) | 0 (Herbicidal ratio of 5% or less (almost no effect)) | 1 (Herbicidal ratio of 5% or more and less than 20%) | 0 (Herbicidal ratio of 5% or less (almost no effect)) | 0 (Herbicidal ratio of 5% or less (almost no effect)) | 2 (Herbicidal ratio of 20% or more and less than 40%) | 0 (Herbicidal ratio of 5% or less (almost no effect)) | 0 (Herbicidal ratio of 5% or less (almost no effect)) | 0 (Herbicidal ratio of 5% or less (almost no effect)) | 1 (Herbicidal ratio of 5% or more and less than 20%) | 1 (Herbicidal ratio of 5% or more and less than 20%) | 1 (Herbicidal ratio of 5% or more and less than 20%) | 4 (Herbicidal ratio of 70% or more and less than 90%) | 1 (Herbicidal ratio of 5% or more and less than 20%) | 5 (Herbicidal ratio of 90% or more (almost completely withered)) | 0 (Herbicidal ratio of 5% or less (almost no effect)) | 0 (Herbicidal ratio of 5% or less (almost no effect)) | 4 (Herbicidal ratio of 70% or more and less than 90%) | 4 (Herbicidal ratio of 70% or more and less than 90%) | P (Stellaria media) herbicidal effect grade (Stellaria media): 3 (Herbicidal ratio of 40% or more and less than 70%); E (herbicidal effect grade) (Cyperus difformis): 3 (Herbicidal ratio of 40% or more and less than 70%)
CSCc1nnc(NC(=O)c2ccc(C(F)(F)F)n3c(C(C)C)nnc23)o1 [1-141] | 0 (Herbicidal ratio of 5% or less (almost no effect)) | 4 (Herbicidal ratio of 70% or more and less than 90%) | 0 (Herbicidal ratio of 5% or less (almost no effect)) | 1 (Herbicidal ratio of 5% or more and less than 20%) | 4 (Herbicidal ratio of 70% or more and less than 90%) | 1 (Herbicidal ratio of 5% or more and less than 20%) | 3 (Herbicidal ratio of 40% or more and less than 70%) | 1 (Herbicidal ratio of 5% or more and less than 20%) | 0 (Herbicidal ratio of 5% or less (almost no effect)) | 0 (Herbicidal ratio of 5% or less (almost no effect)) | 1 (Herbicidal ratio of 5% or more and less than 20%) | 3 (Herbicidal ratio of 40% or more and less than 70%) | 3 (Herbicidal ratio of 40% or more and less than 70%) | 4 (Herbicidal ratio of 70% or more and less than 90%) | 3 (Herbicidal ratio of 40% or more and less than 70%) | 4 (Herbicidal ratio of 70% or more and less than 90%) | 0 (Herbicidal ratio of 5% or less (almost no effect)) | 0 (Herbicidal ratio of 5% or less (almost no effect)) | 2 (Herbicidal ratio of 20% or more and less than 40%) | 4 (Herbicidal ratio of 70% or more and less than 90%) | P (Stellaria media) herbicidal effect grade (Stellaria media): 3 (Herbicidal ratio of 40% or more and less than 70%); E (herbicidal effect grade) (Cyperus difformis): 3 (Herbicidal ratio of 40% or more and less than 70%)
Cc1nonc1NC(=O)c1ccc(C(F)(F)F)n2c(SCC(C)C)nnc12 [3-002] | – | – | – | – | – | 0 (Herbicidal ratio of 5% or less (almost no effect)) | – | – | – | – | – | – | – | – | – | – | – | – | 3 (Herbicidal ratio of 40% or more and less than 70%) | 0 (Herbicidal ratio of 5% or less (almost no effect)) | effect on crop, d (directly sowed Oryza sativa) [5]: 0 (Herbicidal ratio of 5% or less (almost no effect)); effect on crop, b (Zea mays) (Zea mays; [6]): 0 (Herbicidal ratio of 5% or less (almost no effect)); effect on crop, f (Beta vulgaris ssp. vulgaris) [1, 6]: 0 (Herbicidal ratio of 5% or less (almost no effect)); effect on crop, e (Triticum aestivum) (Triticum aestivum; [6]): 0 (Herbicidal ratio of 5% or less (almost no effect)); effect on crop, c (Glycine max) (Glycine max; [6]): 0 (Herbicidal ratio of 5% or less (almost no effect)); effect on crop, g (Brassica campestris L.) (Brassica campestris L.; [6]): 0 (Herbicidal ratio of 5% or less (almost no effect)); herbicidal effect, M (Abutilon theophrasti) (Abutilon theophrasti; [6]): 1 (Herbicidal ratio of 5% or more and less than 20%); herbicidal effect, Q (Galium spurium) (Galium spurium; [6]): 0 (Herbicidal ratio of 5% or less (almost no effect)); herbicidal effect, L (Apera spica-venti.) (Apera spica-venti.; [6]): 0 (Herbicidal ratio of 5% or less (almost no effect)); herbicidal effect, J (Alopecurus myosuroides) (Alopecurus myosuroides; [6]): 0 (Herbicidal ratio of 5% or less (almost no effect)); herbicidal effect, G (Setaria viridis) (Setaria viridis; [6]): 0 (Herbicidal ratio of 5% or less (almost no effect)); herbicidal effect, F (Digitaria ciliaris) (Digitaria ciliaris; [6]): 0 (Herbicidal ratio of 5% or less (almost no effect)); herbicidal effect, N (Amaranthus retroflexus) (Amaranthus retroflexus; [6]): 3 (Herbicidal ratio of 40% or more and less than 70%); herbicidal effect, H (Echinochloa crus-galli var. crus-galli) [3, 6]: 0 (Herbicidal ratio of 5% or less (almost no effect)); herbicidal effect, R (Veronica persica) (Veronica persica; [6]): 0 (Herbicidal ratio of 5% or less (almost no effect)); herbicidal effect, O (Chenopodium album) (Chenopodium album; [6]): 4 (Herbicidal ratio of 70% or more and less than 90%); herbicidal effect, K (Lolium multiflorum Lam.) (Lolium multiflorum Lam.; [6]): 0 (Herbicidal ratio of 5% or less (almost no effect)); herbicidal effect, I (Avena fatua) (Avena fatua; [6]): 0 (Herbicidal ratio of 5% or less (almost no effect)); herbicidal effect, P (Stellaria media) (Stellaria media; [6]): 1 (Herbicidal ratio of 5% or more and less than 20%)
